# Patent publication US7365231B2, “Compound with antitumor activity and preparation method therefor” (National Taiwan University of Science & Technology, priority 2005, dated 2008)
# How the values were obtained:
# Experiment in all cases: NCI panel growth inhibition, sulforhodamine B
# 786-0 = type: cell-based; conditions: Homo sapiens; 786-0, Renal cancer; drug for last 48 h of 72 h
# Excerpt: (§1) Comparison of anticancer activities of the 1,3-substituted adamantane derivatives, 1,3-bis(4-aminophenyl)adamantane (1,3-DPANH2), 1,3-bis(4-(4-aminophenoxy)phenyl)adamantane (1,3-DPAONH2), 1,3-bis(4-(4-amino-3-hydroxy)phenyl)adamantane (1,3-DPA/OH/NH2) and 1,3-bis(4-(4-amino-2-trifluoromethylphenoxy)phenyl)adamantane (1,3-DPA/CF3/NH2) as shown in FIG. 1 were synthesized in the present invention. Those compounds were submitted to the National Cancer Institute for anticancer assay in culture against a standard panel of cell lines. […] To further confirm that the different substituents (CF3 and OH) on the phenyl ring of 1,3-DPAONH2 affect the growth inhibition of cancer cells. […] The transformations of 1,3-DPAONH2 to 1,3-DPA/OH/NH2 led to a remarked enhancement of anticancer activity toward all the tested cancer lines. The role of the OH group at the ortho position of the NH2 on growth inhibition is remarkable. In addition, one compound (1,3-DPA/OH/NH2) was confirmed to have an IC50 of <1 μM against one of the cells (BT-549 breast carcinoma). Comparison of anticancer activities of 1,3-substituted diaminophenyladamantane derivatives, the following order of potency against the tested cancer lines was observed: 1,3-DPA/OH/NH2>1,3-DPAONH2>1,3-DPANH2>1,3-DPA/CF3/NH2.
# A498 = type: cell-based; conditions: Homo sapiens; A498, Renal cancer; drug for last 48 h of 72 h
# Excerpt: as §1
# CCRF-CEM = type: cell-based; conditions: Homo sapiens, Leukemia, drug for last 48 h of 72 h
# Excerpt: as §1
# DU-145 = type: cell-based; conditions: Homo sapiens; DU-145, Prostate cancer; drug for last 48 h of 72 h
# Excerpt: as §1
# EKVX = type: cell-based; conditions: Homo sapiens, NSCLC, drug for last 48 h of 72 h
# Excerpt: as §1
# HCT-116 = type: cell-based; conditions: Homo sapiens; HCT-116, Colon cancer; drug for last 48 h of 72 h
# Excerpt: as §1
# HL-60(TB) = type: cell-based; conditions: Homo sapiens, Leukemia, drug for last 48 h of 72 h
# Excerpt: as §1
# HOP-62 = type: cell-based; conditions: Homo sapiens; HOP-62, NSCLC; drug for last 48 h of 72 h
# Excerpt: as §1
# K-562 = type: cell-based; conditions: Homo sapiens, K562; K-562, Leukemia; drug for last 48 h of 72 h
# Excerpt: as §1
# KM12 = type: cell-based; conditions: Homo sapiens, KM12, KM12, Colon cancer; drug for last 48 h of 72 h
# Excerpt: as §1
# MDA-MB-231 = type: cell-based; conditions: Homo sapiens; MDA-MB-231, Breast cancer; drug for last 48 h of 72 h
# Excerpt: as §1
# NCI-H226 = type: cell-based; conditions: Homo sapiens; NCI-H226, NSCLC; drug for last 48 h of 72 h
# Excerpt: as §1
# NCI-H23 = type: cell-based; conditions: Homo sapiens; NCI-H23, NSCLC; drug for last 48 h of 72 h
# Excerpt: as §1
# OVCAR-3 = type: cell-based; conditions: Homo sapiens; OVCAR-3, Ovarian cancer; drug for last 48 h of 72 h
# Excerpt: as §1
# OVCAR-4 = type: cell-based; conditions: Homo sapiens; OVCAR-4, Ovarian cancer; drug for last 48 h of 72 h
# Excerpt: as §1
# OVCAR-5 = type: cell-based; conditions: Homo sapiens; OVCAR-5, Ovarian cancer; drug for last 48 h of 72 h
# Excerpt: as §1
# OVCAR-8 = type: cell-based; conditions: Homo sapiens; OVCAR-8, Ovarian cancer; drug for last 48 h of 72 h
# Excerpt: as §1
# SK-MEL-2 = type: cell-based; conditions: Homo sapiens; SK-MEL-2, Melanoma; drug for last 48 h of 72 h
# Excerpt: as §1
# SNB-19 = type: cell-based; conditions: Homo sapiens; SNB-19, CNS cancer; drug for last 48 h of 72 h
# Excerpt: as §1
# SW-620 = type: cell-based; conditions: Homo sapiens; SW-620, Colon cancer; drug for last 48 h of 72 h
# Excerpt: as §1
# U251 = type: cell-based; conditions: Homo sapiens, U-251; U251, CNS cancer; drug for last 48 h of 72 h
# Excerpt: as §1
# UACC-257 = type: cell-based; conditions: Homo sapiens; UACC-257, Melanoma; drug for last 48 h of 72 h
# Excerpt: as §1
# UO-31 = type: cell-based; conditions: Homo sapiens; UO-31, Renal cancer; drug for last 48 h of 72 h
# Excerpt: as §1
# BT-549 = type: cell-based, human; conditions: drug for last 48 h of 72 h
# Excerpt: as §1
# NCI/ADR-RES = type: cell-based, human; conditions: Breast cancer, drug for last 48 h of 72 h
# Excerpt: as §1
# SF-295 = type: cell-based, human; conditions: drug for last 48 h of 72 h
# Excerpt: as §1
# MDA-MB-435 = type: cell-based; conditions: Homo sapiens; MDA-MB-435, Breast cancer; drug for last 48 h of 72 h
# Excerpt: as §1
# NCI-H522 = type: cell-based; conditions: Homo sapiens; NCI-H522, NSCLC; drug for last 48 h of 72 h
# Excerpt: as §1
# PC-3 = type: cell-based; conditions: Homo sapiens; PC-3, Prostate cancer; drug for last 48 h of 72 h
# Excerpt: as §1
# [1] = Homo sapiens, BT-549, BT-549, Breast cancer
# [2] = Homo sapiens, SF-295, SF-295, CNS cancer
Compound,IC50 (A498),IC50 (EKVX),IC50 (HCT-116),IC50 (HL-60(TB)),IC50 (HOP-62),IC50 (K-562),IC50 (MDA-MB-231),IC50 (NCI-H226),IC50 (NCI-H23),IC50 (OVCAR-3),IC50 (OVCAR-4),IC50 (OVCAR-8),IC50 (SK-MEL-2),IC50 (SNB-19),IC50 (SW-620),IC50 (U251),IC50 (UACC-257),IC50 (UO-31),IC50 (BT-549; [1]),IC50 (NCI/ADR-RES; Homo sapiens),also measured
"Nc1ccc(C23CC4CC(C2)CC(c2ccc(N)cc2)(C4)C3)cc1 [1,3-DPANH2, 1,3-bis(4-aminophenyl)adamantane]",15.7 µM,36.6 µM,44.3 µM,30.9 µM,60 µM,14.6 µM,19.6 µM,11.5 µM,59.6 µM,48.5 µM,10.2 µM,85.1 µM,35.9 µM,37.8 µM,3.14 µM,14.3 µM,75.5 µM,4.87 µM,42.8 µM,56.8 µM,IC50 (786-0): 38.5 µM; IC50 (CCRF-CEM): 15.7 µM; IC50 (DU-145): 51.2 µM; IC50 (KM12): > 100 µM; IC50 (OVCAR-5): 27.6 µM; IC50 (SF-295; [2]): 16.4 µM
"Nc1ccc(Oc2ccc(C34CC5CC(C3)CC(c3ccc(Oc6ccc(N)c(O)c6)cc3)(C5)C4)cc2)cc1O [1,3-DPA/OH/NH2, 1,3-bis-(4-(4-amino-3-hydroxyphenoxy)phenyl)adamantane]",4.54 µM,1.68 µM,1.39 µM,2.12 µM,5.53 µM,3.46 µM,1.62 µM,5.05 µM,1.86 µM,1.85 µM,2.02 µM,2.03 µM,2.45 µM,1.31 µM,2.89 µM,1.3 µM,2.23 µM,1.95 µM,< 1 µM,2.32 µM,"IC50 (786-0): 2.83 µM; IC50 (DU-145): 1.72 µM; IC50 (KM12): 1.72 µM; IC50 (MDA-MB-435): 1.92 µM; IC50 (NCI-H522): 1.4 µM; IC50 (PC-3): 1.94 µM; IC50 (BT-549; BT-549, Breast cancer): 0.565 µM; IC50 (SF-295; [2]): 2.29 µM"
"Nc1ccc(C2(c3ccc(N)cc3)C3CC4CC(C3)CC2C4)cc1 [2,2-DPANH2, 2,2-bis(4-aminophenyl)adamantane]",21 µM,16.4 µM,20.9 µM,19.2 µM,13.6 µM,10.3 µM,17.4 µM,12.4 µM,19.9 µM,10.9 µM,14.3 µM,7.73 µM,18.5 µM,14.6 µM,11.4 µM,18.6 µM,19.2 µM,18.3 µM,11.2 µM,< 0.1 µM,"IC50 (CCRF-CEM): 3.76 µM; IC50 (MDA-MB-435): 14.7 µM; IC50 (NCI-H522): 15.6 µM; IC50 (OVCAR-5): 15.8 µM; IC50 (PC-3): 14.9 µM; IC50 (NCI/ADR-RES): 0.079 µM; IC50 (SF-295; [2]): < 0.1 µM; IC50 (SF-295; SF-295, CNS cancer): 0.059 µM"
